Results: patent US4510150A, “Pharmaceutical compositions effective against coronary heart disease and hypertension” (Sandoz Ltd., priority 1980, dated 1985)

Columns and labels:
β-adrenoceptor = assay: adequacy of betablockade checked with isoproterenol test dose in the anaesthetized open chest cat; assay type: in vivo; settings: LT 50 μg/kg i.v.; isoproterenol 0.05 μg/kg before, 0.1 μg/kg after betablockade
Method: Cats of 2 to 4 kg of body weight were anaesthetized with chloralose urethane (43 and 430 mg/kg) and ventilated with a Loosco M.K.II infant ventilator with positive end-expiratory pressure. Catheters were inserted into the femoral artery and vein. The thorax was opened through the left fourth intercostal space, the aorta was freed of its adventitia and an electromagnetic flow probe was placed around it. The electromagnetic flow signal and its first derivative, acceleration of the blood in the aorta, mean aortic flow, phasic and mean aortic blood pressure, heart rate and mean right atrial pressure were recorded on a Beckmann R612 8 channel recorder. For flow measurements a Narco RT500 flowmeter was used. Differentiation was performed by a HSE 401 differentiator. The flow signal, which is a measurement of the velocity of blood in the aortic root was electronically integrated to obtain mean aortic flow. At the same time this signal was fed into the differentiator mentioned. The output of the differentiator, acceleration of blood in the aorta, is an indicator of myocardial function and was used instead of dp/dt (R. R. Rushmer, Circulation 29 [1964] 268, G. C. Van den Bos et al., Cardiovascular Research 7 [1973] 834), applied to cats by R. P. Hof and A. Hof, Journal of Pharmacological Methods, accepted for publication in 1981. […] The samples were counted in a Packard Mod. […]

[1] = test system: paced guinea pig left atrium; assay: contractility of paced guinea pig left atria in vitro; assay type: cell-based; settings: for difference between cardiodepressant concentration and the pA2 of Ca-antagonism: guinea pig atria concentration vs dog coronary artery pA2
Method: (§1) Then the effects on contractility of paced guinea pig left […] in vitro was measured:
(§2) Guinea pigs of either sex weighing 250 to 400 g were killed by a blow on their heads and the left atrium was rapidly dissected from the heart and suspended in a modified oxygenated Tyrode solution at 30° C. The preload was adjusted to 1 g, rectangular impulses of 10 msec. at a rate of 1 Hz were used for pacing through a platinum cathode attached to the lower end of the tissue. The tension developed was measured isometrically with a Statham UC 3 transducer.

[2] = target: T1, calcium-induced contraction of isolated dog coronary arteries (Canis lupus familiaris, UniProt A0A8I3QY31); assay: calcium antagonism: calcium-induced contraction of isolated dog coronary arteries in depolarizing solution; assay type: cell-based; settings: helical strips of dog coronary artery, 100 mM KCl solution, cumulative CaCl2 response curves, drug added 30 min before CaCl2; read-out: pA2 of calcium antagonism (converted)
T1 construct: Branches of the ventral interventricular artery (about 500 to 1000 μm outer diameter) were dissected and cut into helical strips; from tissue; host or cells: helical strips of branches of the ventral interventricular (coronary) artery of mongrel dogs
Method: First the potency of calcium antagonism was determined on coronary arteries in vitro:
Mongrel dogs of either sex weighing between 15 and 30 kg were anaesthetized by rapid i.v. injection of pentobarbitone (50 mg/kg) and killed by i.v. injection of 100 ml of air. The heart was removed and placed in a modified Krebs-Henseleit solution (mM): NaCl 118, KCl 4.7, MgSo4 1.2, CaCl2 2.5, KH2 PO4 1.2, NaHCO3 25, glucose 11, at 37° C., gassed with 95% O2 -5% CO2. Branches of the ventral interventricular artery (about 500 to 1000 μm outer diameter) were dissected and cut into helical strips, approximately 1 to 3 mm wide and 10 mm long.
The strips were suspended in 10 ml organ baths containing Krebs-Henseleit solution at 37° C. gassed continuously with 5% CO2 in oxygen. Changes in the tension of the strips were recorded isometrically with electromechanical transducers (Statham model UC 3) and a potentiometric recorder. At the beginning of the experiments the strips were stretched to an initial tension of 500 mg and then allowed to equilibrate for 120 to 180 minutes in the bathing medium. Thereafter the Krebs-Henseleit solution was replaced by a solution containing 100 mM KCl in equimolar replacement for NaCl. Cumulative response curves for CaCl2 were established, using the method described by Van Rossum, J. M., Arch. […] The effects were expressed as percentage of the preceding response to […]. […]

[3] = test system: anaesthetized open chest cat; assay: hemodynamics in the anaesthetized open chest cat (microsphere method); assay type: in vivo
Method: This observation was arrived at in the anaesthetized open chest cat as follows:
The microsphere method as described in 1967 by Rudolph, A. M. and Heymann, M. S. in Circ. Res. 21 (1967) 163 and modified by R. P. Hof, F. Wyler and G. Stalder, Basic Res. Cardial. 75, 747-756 (1980) was used. Cardiac output was calculated from the flow signal of an electromagnetic flow meter. […] This consists in sampling blood at a known flow rate into a syringe, which can be regarded as "an external organ".
This sampling is done during the time of microsphere circulation. The number of microspheres in the syringe is then determined and cardiac output can be calculated as follows:
where CO is cardiac output, Qs is flow to the syringe, Ni is the number of spheres injected and Ns is the number of spheres in the syringe.
Cats of 2 to 4 kg of body weight were anaesthetized with chloralose urethane (43 and 430 mg/kg) and ventilated with a Loosco M.K.II infant ventilator with positive end-expiratory pressure. Catheters were inserted into the femoral artery and vein. […] The electromagnetic flow signal and its first derivative, acceleration of the blood in the aorta, mean aortic flow, phasic and mean aortic blood pressure, heart rate and mean right atrial pressure were recorded on a Beckmann R612 8 channel recorder. […] The samples were counted in a Packard Mod. […]

[4] = target: T2, paced guinea pig left atrium (Cavia porcellus, UniProt O35505); assay: contractility of paced guinea pig left atria in vitro; assay type: cell-based; settings: guinea pig; highest dose 0.444 μM; paced 1 Hz, 30° C.; read-out: contractile force, % of its baseline value
T2 construct: the left atrium was rapidly dissected from the heart and suspended in a modified oxygenated Tyrode solution; from tissue; host or cells: isolated left atrium of guinea pig
Method: as §1, §2

T1 sequence (A0A8I3QY31 1-2188): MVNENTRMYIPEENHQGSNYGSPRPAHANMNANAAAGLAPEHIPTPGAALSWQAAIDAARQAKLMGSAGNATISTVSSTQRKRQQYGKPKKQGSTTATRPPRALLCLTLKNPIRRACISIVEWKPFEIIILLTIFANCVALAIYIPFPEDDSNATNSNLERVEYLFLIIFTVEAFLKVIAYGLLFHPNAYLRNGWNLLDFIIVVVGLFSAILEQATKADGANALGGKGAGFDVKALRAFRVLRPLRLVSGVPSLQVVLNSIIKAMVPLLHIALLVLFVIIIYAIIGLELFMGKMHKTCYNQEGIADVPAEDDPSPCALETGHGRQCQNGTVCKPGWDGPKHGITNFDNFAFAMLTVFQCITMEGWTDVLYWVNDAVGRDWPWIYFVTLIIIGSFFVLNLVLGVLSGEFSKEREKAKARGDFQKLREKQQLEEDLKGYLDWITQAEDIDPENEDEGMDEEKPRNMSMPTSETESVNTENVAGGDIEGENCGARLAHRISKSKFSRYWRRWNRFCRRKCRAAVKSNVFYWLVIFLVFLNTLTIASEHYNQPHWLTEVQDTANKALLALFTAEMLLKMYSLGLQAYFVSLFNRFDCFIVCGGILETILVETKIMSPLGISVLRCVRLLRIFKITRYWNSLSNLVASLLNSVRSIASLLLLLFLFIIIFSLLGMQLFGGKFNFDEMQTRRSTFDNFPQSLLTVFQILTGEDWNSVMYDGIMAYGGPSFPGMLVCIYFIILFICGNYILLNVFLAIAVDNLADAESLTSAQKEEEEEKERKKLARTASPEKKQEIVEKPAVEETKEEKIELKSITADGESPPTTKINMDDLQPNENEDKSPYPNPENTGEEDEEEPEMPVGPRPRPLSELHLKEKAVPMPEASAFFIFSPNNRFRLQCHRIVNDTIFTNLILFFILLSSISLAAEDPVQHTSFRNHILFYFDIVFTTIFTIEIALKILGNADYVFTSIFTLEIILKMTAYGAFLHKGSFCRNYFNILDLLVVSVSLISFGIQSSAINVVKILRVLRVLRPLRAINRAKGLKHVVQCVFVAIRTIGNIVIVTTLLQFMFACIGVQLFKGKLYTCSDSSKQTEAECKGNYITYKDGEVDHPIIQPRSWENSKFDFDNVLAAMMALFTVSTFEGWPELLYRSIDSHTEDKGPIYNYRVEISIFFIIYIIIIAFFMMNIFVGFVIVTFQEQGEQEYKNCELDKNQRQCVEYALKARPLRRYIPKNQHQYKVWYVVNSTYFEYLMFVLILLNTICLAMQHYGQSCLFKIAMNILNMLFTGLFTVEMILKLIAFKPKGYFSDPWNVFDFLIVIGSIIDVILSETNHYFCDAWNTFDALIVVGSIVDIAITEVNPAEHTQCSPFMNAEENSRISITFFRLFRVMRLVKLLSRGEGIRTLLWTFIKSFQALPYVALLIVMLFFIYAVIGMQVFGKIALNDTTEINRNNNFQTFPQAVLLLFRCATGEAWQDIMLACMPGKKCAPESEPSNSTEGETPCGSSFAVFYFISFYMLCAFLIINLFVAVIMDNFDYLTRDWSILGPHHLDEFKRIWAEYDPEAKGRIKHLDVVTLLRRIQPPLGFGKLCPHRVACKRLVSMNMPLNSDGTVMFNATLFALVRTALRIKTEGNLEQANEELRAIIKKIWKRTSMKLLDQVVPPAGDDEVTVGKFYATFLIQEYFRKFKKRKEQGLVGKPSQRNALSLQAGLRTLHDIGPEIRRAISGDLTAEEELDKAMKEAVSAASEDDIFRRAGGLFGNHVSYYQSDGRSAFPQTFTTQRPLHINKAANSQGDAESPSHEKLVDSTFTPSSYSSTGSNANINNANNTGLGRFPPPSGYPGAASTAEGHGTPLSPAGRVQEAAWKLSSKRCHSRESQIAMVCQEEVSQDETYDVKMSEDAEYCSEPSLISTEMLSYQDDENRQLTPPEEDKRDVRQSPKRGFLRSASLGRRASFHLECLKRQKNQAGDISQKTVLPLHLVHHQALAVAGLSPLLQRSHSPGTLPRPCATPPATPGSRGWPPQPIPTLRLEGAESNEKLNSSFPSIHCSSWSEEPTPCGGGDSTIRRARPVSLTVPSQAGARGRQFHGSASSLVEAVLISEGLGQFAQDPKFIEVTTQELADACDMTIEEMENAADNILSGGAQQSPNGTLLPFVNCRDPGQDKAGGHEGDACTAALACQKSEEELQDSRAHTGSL
T2 sequence (O35505 whole entry): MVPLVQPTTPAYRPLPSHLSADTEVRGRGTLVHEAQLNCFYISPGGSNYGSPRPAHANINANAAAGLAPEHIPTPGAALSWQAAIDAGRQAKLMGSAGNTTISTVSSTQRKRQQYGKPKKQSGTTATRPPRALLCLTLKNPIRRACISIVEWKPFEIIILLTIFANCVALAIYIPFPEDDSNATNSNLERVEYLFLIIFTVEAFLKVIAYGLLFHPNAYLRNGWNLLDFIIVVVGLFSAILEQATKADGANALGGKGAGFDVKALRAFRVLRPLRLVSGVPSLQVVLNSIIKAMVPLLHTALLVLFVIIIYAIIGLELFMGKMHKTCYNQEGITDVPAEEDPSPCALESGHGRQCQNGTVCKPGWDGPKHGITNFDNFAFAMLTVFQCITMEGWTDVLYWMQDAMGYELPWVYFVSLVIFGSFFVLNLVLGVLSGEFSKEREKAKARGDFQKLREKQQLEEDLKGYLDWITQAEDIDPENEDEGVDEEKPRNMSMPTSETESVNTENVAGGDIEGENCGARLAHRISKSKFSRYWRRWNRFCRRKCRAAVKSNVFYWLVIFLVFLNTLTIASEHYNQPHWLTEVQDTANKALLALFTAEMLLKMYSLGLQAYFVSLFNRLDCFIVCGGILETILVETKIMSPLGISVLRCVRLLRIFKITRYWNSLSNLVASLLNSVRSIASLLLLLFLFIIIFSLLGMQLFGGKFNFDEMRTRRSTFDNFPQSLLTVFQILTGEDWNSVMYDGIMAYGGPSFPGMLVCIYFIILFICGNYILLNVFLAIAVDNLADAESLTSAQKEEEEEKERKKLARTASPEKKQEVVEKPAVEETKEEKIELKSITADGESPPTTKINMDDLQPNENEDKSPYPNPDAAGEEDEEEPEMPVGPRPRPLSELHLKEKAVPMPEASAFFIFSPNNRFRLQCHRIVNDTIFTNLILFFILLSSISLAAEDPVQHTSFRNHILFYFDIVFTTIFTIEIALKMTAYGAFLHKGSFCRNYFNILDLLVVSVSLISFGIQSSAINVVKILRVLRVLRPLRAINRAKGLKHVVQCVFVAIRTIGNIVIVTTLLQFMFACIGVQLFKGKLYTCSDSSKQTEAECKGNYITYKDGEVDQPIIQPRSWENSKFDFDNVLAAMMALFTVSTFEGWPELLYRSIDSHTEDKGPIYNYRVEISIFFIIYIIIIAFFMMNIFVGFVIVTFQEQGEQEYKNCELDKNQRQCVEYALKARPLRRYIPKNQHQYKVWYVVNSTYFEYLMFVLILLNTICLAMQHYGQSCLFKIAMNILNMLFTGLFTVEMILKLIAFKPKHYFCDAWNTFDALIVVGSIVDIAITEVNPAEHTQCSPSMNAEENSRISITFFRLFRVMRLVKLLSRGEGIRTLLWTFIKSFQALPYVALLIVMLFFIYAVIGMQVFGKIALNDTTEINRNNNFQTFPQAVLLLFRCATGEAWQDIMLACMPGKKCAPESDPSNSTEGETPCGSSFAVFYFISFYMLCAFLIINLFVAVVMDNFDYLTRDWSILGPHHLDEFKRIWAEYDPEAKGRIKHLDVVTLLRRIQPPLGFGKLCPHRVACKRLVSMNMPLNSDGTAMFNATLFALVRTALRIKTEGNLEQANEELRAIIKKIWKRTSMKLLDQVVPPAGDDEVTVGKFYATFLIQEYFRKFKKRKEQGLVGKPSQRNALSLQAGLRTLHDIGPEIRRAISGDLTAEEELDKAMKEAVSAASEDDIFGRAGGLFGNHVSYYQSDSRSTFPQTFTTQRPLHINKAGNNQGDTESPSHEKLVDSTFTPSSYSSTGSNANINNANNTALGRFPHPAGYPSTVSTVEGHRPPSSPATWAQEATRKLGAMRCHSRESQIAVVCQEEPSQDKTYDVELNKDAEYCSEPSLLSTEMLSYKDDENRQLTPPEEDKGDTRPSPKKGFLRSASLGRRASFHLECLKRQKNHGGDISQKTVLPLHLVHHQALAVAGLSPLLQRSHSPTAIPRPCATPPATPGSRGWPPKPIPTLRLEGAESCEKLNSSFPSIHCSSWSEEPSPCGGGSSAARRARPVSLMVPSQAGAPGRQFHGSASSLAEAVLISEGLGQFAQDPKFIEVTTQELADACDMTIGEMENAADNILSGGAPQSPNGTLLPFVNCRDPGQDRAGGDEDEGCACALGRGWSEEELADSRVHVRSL

Row | Structure (SMILES) | suppression of isoproterenol effects (β-adrenoceptor) | difference between cardiodepressant concentration and the pA2 of Ca-antagonism [1] | Kb [2] | coronary blood flow ([3]; 43 μg/kg i.v., no pretreatment) | general hemodynamic parameters (acceleration of blood, cardiac output, heart rate, coronary flow) after β-blocker pretreatment ([3]; compound No. 22 43 μg/kg i.v., 60 minutes after LT 50 μg/kg i.v.) | times less cardiodepressant than Verapamil for a similar degree of calcium antagonism ([1]; relative to Verapamil) | activity at 0.444 µM [4]
1 | Cc1cc2c(OCC(CNC(C)(C)C)OC(=O)c3ccccc3)cccc2[nH]1 (stereo not drawn) [LT, 4-(2-benzoyloxy-3-tert-butylaminopropoxy)-2-methylindole] | completely or almost completely suppressed |  |  |  |  |  | 
2 | COc1ccc(CCN(C)CCCC(C#N)(c2ccc(OC)c(OC)c2)C(C)C)cc1OC (stereo not drawn) [Verapamil, reference compound] |  | about 100 fold | 15.8 nM |  |  |  | 
3 | CCOC(=O)C1=C(C)NC(C)=C(C(=O)OCC)C1c1cccc2nonc12 [compound No. 22] |  | about 10,000 fold | 0.0316 nM | markedly increased | strikingly similar to those without pretreatment | about 100 times | 56%
